Source: patent US11649261B2, “Crystalline forms of a CD73 inhibitor and uses thereof” (ARCUS BIOSCIENCES, INC., priority 2020, dated 2023)
Entries after “also recorded” stand apart in the source; their conditions may differ. Like-named read-outs stand apart in the source and are kept apart here.

Key:
Format in all cases: physicochemical
[1] = Competitive slurry conversion testing of Forms I, II and V in EtOH/EtOAc at 20° C.
Description: The relative form stability between Forms I, II and V was investigated by aging mixtures of the mixed forms in EtOH, EtOAc, and mixtures thereof. The Form V starting material contained some Form II as determined by its XRPD pattern.
In two 4 mL vials, enough Form I and Form V (containing some Form II) were mixed with 1 mL of the appropriate solvent to generate a slurry in each vial. The two slurries were combined and shaken at 600 rpm at 20° C. The solids from the slurries were isolated for XRPD characterization at time 0, 1 day and 2 days (FIG. 12A-D).

[2] = Equilibrium solubility of Form I and Form II + V in EtOH/EtOAc, with XRPD of the end solids; conditions: for Solubility (wt %) / solubility: overnight; for End Form by XRPD: slurry 20° C. overnight
Description: Equilibrium solubilities of Form I and Form V were measured in EtOH/EtOAc at different ratios at 20° C. The Form V starting material contains some Form II as determined by XRPD.
In a 4 mL vial, 50 mg of the appropriate solid was mixed with 1 mL of each solvent. The resulting slurry was shaken at 600 rpm at 20° C. overnight. The supernatant from each vial was sampled for HPLC for equilibrium solubility, and the solids isolated and characterized by XRPD.

[3] = Competitive slurry of crystalline forms in a 1:2 mixture of EtOH(anhydrous):EtOAc; conditions: 1:2 EtOH (anhydrous):EtOAc
Description: A flask was charged with crystalline Form A (1.5 g) and crystalline Form I (1.5 g) with 30 mL of a 1:2 mixture of ethanol (anhydrous) and ethyl acetate. The resulting mixture was allowed to stir at room temperature for 5 hours resulting in a thick white slurry. An additional 6 mL of the 1:2 EtOH (anhydrous):EtOAc mixture was added. The suspension was allowed to stir for 5 days. A small sample of the suspension was pulled from the mixture after 22 hr, 46 hr and 118 hr. The samples were filtered, and dried in an oven at room temperature for 2-3 hr and characterized by XRPD.
A 20 mL vial was charged with 0.2 g of Form V and 0.2 g of Form I with 4 mL of a 1:2 EtOH (anhydrous):EtOAc mixture. The resulting suspension was stirred vigorously for 3 days. The suspension was filtered, and the solid was dried under reduced pressure at RT for 3 hr.
A 15 mL round bottom flask was equipped with a stir bar, thermometer and N2 inlet, and was charged with 0.25 g Form I and 0.25 g Form V. To the flask was added 6 mL of a 1:2 EtOH (anhydrous):EtOAc mixture was added to the flask resulting in a white suspension. The suspension was heated to 35° C. and stirred vigorously for 2 days. The suspension was filtered, and the resulting solid dried under reduced pressure at RT for 3 hr.
A 20 mL vial was charged with 0.2 g Form I and 0.2 g Form II. […]

[4] = Dynamic vapor sorption (DVS); conditions: for Form of post-DVS sample by XRPD: after DVS at 25° C.
Description: Approximately 10 mg of sample was placed into a mesh vapor sorption balance pan and loaded into a DVS-1, DVS Intrinsic or DVS Advantage dynamic vapor sorption balance by Surface Measurement Systems. The sample was subjected to a ramping profile from 40-90% relative humidity (RH) at 10% increments, maintaining the sample at each step until a stable weight had been achieved (dm/dt 0.004%, minimum step length 30 min, maximum step length 500 min) at 25° C. After completion of the sorption cycle, the sample was dried using the same procedure to 0% RH and then a second sorption cycle back to 90% RH. Two cycles were performed. The weight change during the sorption/desorption cycles were plotted, allowing for the hygroscopic nature of the sample to be determined. XRPD analysis was then carried out on any solid retained.
Form I and II were analyzed by dynamic vapor sorption (DVS) at 25° C. (FIG. 16 and FIG. 17).

[5] = Equilibrium solubility of Forms I, II and V in EtOH/Heptane; conditions: EtOH/HPT, all solvent ratios, 20 and 35° C.
Description: Equilibrium solubilities of Forms I, II and V were measured in EtOH/Heptane (HPT) solutions of different ratios at 20 and 35° C.
In 4 mL test vial, the appropriate solids (Form I or Form II containing Form V) were mixed with ˜1 mL of each solvent to generate slurry. The resulting slurry was shaken at 600 rpm at 20 and 35° C. overnight. After overnight aging, supernatant from each vial was sampled for HPLC for equilibrium solubility, solids were isolated to check by XRPD.

[6] = Form V / Form II interconversion on storage, drying and reslurry
Description: Increasing the temperature to 40° C. and drying Form V under vacuum increased the conversion rate to Form II (full conversion observed after 48 hr).

[7] = ≤20 v % EtOH system, aging for two days
[8] = 100 V % EtOH in EtOH/EtOAc, 20° C.

Structure (SMILES): C[C@H](Nc1cc(Cl)nc2c1cnn2[C@@H]1O[C@H](COP(=O)(O)CP(=O)(O)O)[C@@H](O)[C@H]1O)c1ccccc1F [Form I, (((((2R,3S,4R,5R)-5-(6-chloro-4-(((S)-1-(2-fluorophenyl)ethyl)amino)-1H-pyrazolo[3,4-b]pyridin-1-yl)-3,4-dihydroxytetrahydrofuran-2-yl)methoxy)(hydroxy)phosphoryl)methyl)phosphonic acid]
- Form conversion in competitive slurry ([1]; solvents with ≥80 v % EtOH): converted to Form II
- Form conversion in competitive slurry [1, 7]: remained
- Solubility (wt %) ([2]; 0 V % EtOH in EtOH/EtOAc, 20° C.): 0.0% wt %
- End Form by XRPD ([2]; 0 V % EtOH in EtOH/EtOAc): Form I
- Solubility (wt %) ([2]; 20 V % EtOH in EtOH/EtOAc, 20° C.): 0.1% wt %
- End Form by XRPD ([2]; 20 V % EtOH in EtOH/EtOAc): Form I
- Solubility (wt %) ([2]; 33 V % EtOH in EtOH/EtOAc, 20° C.): 1.0% wt %
- End Form by XRPD ([2]; 33 V % EtOH in EtOH/EtOAc): Form I
- Solubility (wt %) ([2]; 50 V % EtOH in EtOH/EtOAc, 20° C.): 1.7% wt %
- End Form by XRPD ([2]; 50 V % EtOH in EtOH/EtOAc): Form I
- Solubility (wt %) ([2]; 67 V % EtOH in EtOH/EtOAc, 20° C.): 3.0% wt %
- End Form by XRPD ([2]; 67 V % EtOH in EtOH/EtOAc): Form I
- Solubility (wt %) ([2]; 80 V % EtOH in EtOH/EtOAc, 20° C.): 4.2% wt %
- End Form by XRPD ([2]; 80 V % EtOH in EtOH/EtOAc): Form I
- Solubility (wt %) [2, 8]: 6.4% wt %
- solubility [2, 8]: 46.54 mg/mL
- End Form by XRPD ([2]; 100 V % EtOH in EtOH/EtOAc): Form I
- Relative form stability ([2]; EtOAc rich solvent system except for too high EtOAc (with too low solubility)): more stable than Forms II and V
- solubility ([2]; EtOH/EtOAc solvent mixture, 20 °C, organic solvent or mixture, thermodynamic from solid, 20 V % EtOH in EtOH/EtOAc, 20° C., read-out: Solubility): 1.01 mg/mL
- solubility ([2]; EtOH/EtOAc solvent mixture, 20 °C, organic solvent or mixture, thermodynamic from solid, 33 V % EtOH in EtOH/EtOAc, 20° C., read-out: Solubility): 8.93 mg/mL
- solubility ([2]; EtOH/EtOAc solvent mixture, 20 °C, organic solvent or mixture, thermodynamic from solid, 50 V % EtOH in EtOH/EtOAc, 20° C., read-out: Solubility): 13.7 mg/mL
- solubility ([2]; EtOH/EtOAc solvent mixture, 20 °C, organic solvent or mixture, thermodynamic from solid, 67 V % EtOH in EtOH/EtOAc, 20° C., read-out: Solubility): 23.7 mg/mL
- solubility ([2]; EtOH/EtOAc solvent mixture, 20 °C, organic solvent or mixture, thermodynamic from solid, 80 V % EtOH in EtOH/EtOAc, 20° C., read-out: Solubility): 32.8 mg/mL
- solubility ([2]; EtOH/EtOAc solvent mixture, 20 °C, organic solvent or mixture, thermodynamic from solid, 100 V % EtOH in EtOH/EtOAc, 20° C., read-out: Solubility): ~46 mg/mL
- Crystal form change in solubility vials ([2]; EtOH/EtOAc, all ratios, 20° C.): No crystal form change
- Relative form stability ([3]; 35° C., 2 days): more stable than Form V; also recorded: more stable than Form II
- Relative form stability ([3]; RT): more stable than Form A; also recorded: more stable than Form V; also recorded: more stable than Form II
- Form of post-DVS sample by XRPD [4]: conversion to Form VI
- Solubility compared between forms [5]: higher than the solubility of Form II/V mixtures

Structure (SMILES): C[C@H](Nc1cc(Cl)nc2c1cnn2[C@@H]1O[C@H](COP(=O)(O)CP(=O)(O)O)[C@@H](O)[C@H]1O)c1ccccc1F [Form II, (((((2R,3S,4R,5R)-5-(6-chloro-4-(((S)-1-(2-fluorophenyl)ethyl)amino)-1H-pyrazolo[3,4-b]pyridin-1-yl)-3,4-dihydroxytetrahydrofuran-2-yl)methoxy)(hydroxy)phosphoryl)methyl)phosphonic acid]
- Form recovered after resuspending ([6]; 1:1 EtOH:EtOAc mixture overnight with stirring): recovery of Form V
- Relative form stability ([2]; EtOH rich or EtOAc lean solvent systems): more stable than Forms I and V
- Form of post-DVS sample by XRPD [4]: conversion to Form VI
- Water uptake compared with Form I ([4]; from 40% to 70% relative humidity (RH), 25° C.): much less water uptake

Structure (SMILES): C[C@H](Nc1cc(Cl)nc2c1cnn2[C@@H]1O[C@H](COP(=O)(O)CP(=O)(O)O)[C@@H](O)[C@H]1O)c1ccccc1F [Form V, (((((2R,3S,4R,5R)-5-(6-chloro-4-(((S)-1-(2-fluorophenyl)ethyl)amino)-1H-pyrazolo[3,4-b]pyridin-1-yl)-3,4-dihydroxytetrahydrofuran-2-yl)methoxy)(hydroxy)phosphoryl)methyl)phosphonic acid]
- Form conversion in competitive slurry ([1]; 50~33 v % EtOH solvents): converted to Form I
- Form conversion in competitive slurry ([1]; solvents with ≥80 v % EtOH): converted to Form II
- Form conversion in competitive slurry [1, 7]: remained
- Time for full conversion to Form II ([6]; 40° C., drying under vacuum): 48 h
- Time for full conversion to Form II ([6]; stored at ambient temperature under an N2 blanket): > 48 h
